Measured values from ChEMBL document CHEMBL1128033, “Design and synthesis of new leads for PKC bisubstrate inhibitors” (Bioorg Med Chem Lett, 1994).

Columns and labels:
[1] = target: cAMP-dependent protein kinase (PKA) (Homo sapiens, UniProt P22694+P17612+P22612); experiment: Inhibition of c-AMP dependent kinase (PKA) using histone II A protein; type: protein assay
Protein kinase C (PKC) = experiment: Inhibition of protein kinase C (PKC) using histone III S protein; type: protein assay

| SMILES | IC50 [1] [µM] | IC50 (Protein kinase C (PKC)) [µM] |
| --- | --- | --- |
| NCCCNCCCNC1=C(c2cc3ccccc3[nH]2)C(=O)NC1=O | 390 | 100 |
| NCCCCCNC1=C(c2cc3ccccc3[nH]2)C(=O)NC1=O | 300 | 8 |
| NC(N)=NCCCC(N)C(=O)NCCCCCNC1=C(c2cc3ccccc3[nH]2)C(=O)NC1=O (stereo not drawn) |  | 60 |
| NCCCCCCNC1=C(c2cc3ccccc3[nH]2)C(=O)NC1=O | 50 | 40 |
| NC(Cc1ccccc1)C(=O)NCCCCCNC1=C(c2cc3ccccc3[nH]2)C(=O)NC1=O (stereo not drawn) |  | 120 |
| C[C@H]1CNCCN1S(=O)(=O)c1cccc2cnccc12 |  | 6 |
| NCCCCCCCNC1=C(c2cc3ccccc3[nH]2)C(=O)NC1=O | 150 | 5 |
| NC(CCC(=O)O)C(=O)NCCCCCNC1=C(c2cc3ccccc3[nH]2)C(=O)NC1=O (stereo not drawn) | 390 | 105 |
| NCCNC1=C(c2cc3ccccc3[nH]2)C(=O)NC1=O | 100 | 90 |
| NCCNCCNC1=C(c2cc3ccccc3[nH]2)C(=O)NC1=O | 310 | 120 |
| NC(N)=NCCCC(N)C(=O)NCCNCCCCCNC1=C(c2cc3ccccc3[nH]2)C(=O)NC1=O (stereo not drawn) | 210 | 8 |
| NC(Cc1ccccc1)C(=O)NCCNCCCCCNC1=C(c2cc3ccccc3[nH]2)C(=O)NC1=O (stereo not drawn) | 120 | 95 |
| NCCNCCCCCNC1=C(c2cc3ccccc3[nH]2)C(=O)NC1=O | > 500 | 110 |
